# Key:
# Format in all cases: in vivo
# [1] = system: redroot pigweed (Amaranthus retroflexus, AMARE); assay: Pre-emerge test, greenhouse herbicide activity screening; conditions: pre-emerge, rated 14 days after application, 0 = no damage, 100 = complete death
# How it was run: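 Sandy loam pots; pre-emerge: sown 1 d pre-spray, surface-watered after, then bottom-watered. Post-emerge: sown 8–21 d before, 2–3 leaf stage, + 0.25% v/v NIS, bottom-watered. Acetone, 187 l/ha track spray, 15–1000 g ai/ha. 0–100 injury score, day 14.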
# [2] = system: barnyardgrass (Echinochloa crus-galli, ECHCG); assay: as above; conditions: pre-emerge, rated 14 days after application, 0 = no damage, 100 = complete death
# How it was run: (§1)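 Visual ratings on a 0-100 scale (0 no damage, 100 all plants dead) were taken at 14 days after treatment. Rates of 15-1000 g ai/ha in acetone, 187 l/ha, were sprayed onto soil one day after planting (pre-emerge) or onto 2-3 leaf plants with 0.25% v/v surfactant (post-emerge).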
# [3] = system: common ragweed (Ambrosia artemisizfolia L., AMBEL); assay: as above; conditions: pre-emerge, rated 14 days after application, 0 = no damage, 100 = complete death
# How it was run: as §1
# [4] = system: green foxtail (Setaria viridis, SETVI); assay: as above; conditions: pre-emerge, rated 14 days after application, 0 = no damage, 100 = complete death
# How it was run: as §1
# [5] = system: ivyleaf morningglory (Ipomoea hederacea, IPOHE); assay: as above; conditions: pre-emerge, rated 14 days after application, 0 = no damage, 100 = complete death
# How it was run: as §1
# [6] = system: johnsongrass (Sorghum halepense, SORHA); assay: as above; conditions: pre-emerge, rated 14 days after application, 0 = no damage, 100 = complete death
# How it was run: as §1
# [7] = system: lambsquarters (Chenopodium album, CHEAL); assay: as above; conditions: pre-emerge, rated 14 days after application, 0 = no damage, 100 = complete death
# How it was run: as §1
# [8] = system: large crabgrass (Digitaria sanguinalis, DIGSA); assay: as above; conditions: pre-emerge, rated 14 days after application, 0 = no damage, 100 = complete death
# How it was run: as §1
# [9] = system: sicklepod (Cassia obtusifolia, CASOB); assay: as above; conditions: pre-emerge, rated 14 days after application, 0 = no damage, 100 = complete death
# How it was run: as §1
# [10] = system: velvetleaf (Abutilon theophrasti, ABUTH); assay: as above; conditions: pre-emerge, rated 14 days after application, 0 = no damage, 100 = complete death
# How it was run: as §1
# [11] = system: field corn (Zea mays L., var. Dekalb 535, CORN); assay: Pre-emerge test, crop safety; conditions: pre-emerge, rated 14 days after application, 0 = no damage, 100 = complete death
# How it was run: (§2)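 Fourteen days after spraying, crop and weed injury was graded visually from 0, no effect, to 100, every plant dead. Test substances were dissolved in acetone and applied at 15–1000 g ai/ha with a flat-fan nozzle. Application was either pre-emergence, one day after sowing, or post-emergence at the 2–3 leaf stage.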
# [12] = system: upland rice (Oryza sp., var. Tebonnet, RICE); assay: Pre-emerge test, crop safety; conditions: pre-emerge, rated 14 days after application, 0 = no damage, 100 = complete death
# How it was run: as §2
# [13] = system: barnyardgrass (Echinochloa crus-galli, ECHCG); assay: Post-emerge test, greenhouse herbicide activity screening; conditions: phytotoxicity rating 0-100 (0 no damage, 100 complete death), 14 days after application
# How it was run: (§3)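 Plants grown in 10 cm pots of sandy loam mix received acetone-dissolved compounds through a moving flat-fan nozzle. Doses ranged from 15 to 1000 g ai/ha. Pre-emerge pots were seeded one day earlier, post-emerge pots 8–21 days earlier. Fourteen days on, each pot was graded 0–100 for damage.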
# [14] = system: green foxtail (Setaria viridis, SETVI); assay: as above; conditions: phytotoxicity rating 0-100 (0 no damage, 100 complete death), 14 days after application
# How it was run: as §3
# [15] = system: ivyleaf morningglory (Ipomoea hederacea, IPOHE); assay: as above; conditions: phytotoxicity rating 0-100 (0 no damage, 100 complete death), 14 days after application
# How it was run: as §3
# [16] = system: johnsongrass (Sorghum halepense, SORHA); assay: as above; conditions: phytotoxicity rating 0-100 (0 no damage, 100 complete death), 14 days after application
# How it was run: as §3
# [17] = system: lambsquarters (Chenopodium album, CHEAL); assay: as above; conditions: phytotoxicity rating 0-100 (0 no damage, 100 complete death), 14 days after application
# How it was run: as §3
# [18] = system: large crabgrass (Digitaria sanguinalis, DIGSA); assay: as above; conditions: phytotoxicity rating 0-100 (0 no damage, 100 complete death), 14 days after application
# How it was run: as §3
# [19] = system: redroot pigweed (Amaranthus retroflexus, AMARE); assay: as above; conditions: phytotoxicity rating 0-100 (0 no damage, 100 complete death), 14 days after application
# How it was run: as §3
# [20] = system: sicklepod (Cassia obtusifolia, CASOB); assay: as above; conditions: phytotoxicity rating 0-100 (0 no damage, 100 complete death), 14 days after application
# How it was run: as §3
# [21] = system: velvetleaf (Abutilon theophrasti, ABUTH); assay: as above; conditions: phytotoxicity rating 0-100 (0 no damage, 100 complete death), 14 days after application
# How it was run: as §3
# [22] = system: field corn (Zea mays L., var. Dekalb 535, CORN); assay: Post-emerge test, crop safety; conditions: phytotoxicity rating 0-100 (0 no damage, 100 complete death), 14 days after application
# How it was run: as §1
# [23] = system: upland rice (Oryza sp., var. Tebonnet, RICE); assay: Post-emerge test, crop safety; conditions: phytotoxicity rating 0-100 (0 no damage, 100 complete death), 14 days after application
# How it was run: as §1
smiles,measurement,setting,value
CCOC(=O)C(C)Nc1cc(OC(F)F)cc(F)c1-n1c(=O)cc(C(F)(F)F)n(C)c1=O (stereo not shown) [Compound 1-53],"Pre-emerge Herbicidal Activity AMARE (phytotoxicity rating, scale 0-100)",[1]; 63 g ai/ha,100
same,"Pre-emerge Herbicidal Activity AMARE (phytotoxicity rating, scale 0-100)",[1]; 250 g ai/ha,100
same,"Pre-emerge Herbicidal Activity ECHCG (phytotoxicity rating, scale 0-100)",[2]; 63 g ai/ha,0
same,"Pre-emerge Herbicidal Activity ECHCG (phytotoxicity rating, scale 0-100)",[2]; 250 g ai/ha,80
same,"Pre-emerge Herbicidal Activity AMBEL (phytotoxicity rating, scale 0-100)",[3]; 63 g ai/ha,50
same,"Pre-emerge Herbicidal Activity AMBEL (phytotoxicity rating, scale 0-100)",[3]; 250 g ai/ha,90
same,"Pre-emerge Herbicidal Activity SETVI (phytotoxicity rating, scale 0-100)",[4]; 63 g ai/ha,50
same,"Pre-emerge Herbicidal Activity SETVI (phytotoxicity rating, scale 0-100)",[4]; 250 g ai/ha,95
same,"Pre-emerge Herbicidal Activity IPOHE (phytotoxicity rating, scale 0-100)",[5]; 63 g ai/ha,50
same,"Pre-emerge Herbicidal Activity IPOHE (phytotoxicity rating, scale 0-100)",[5]; 250 g ai/ha,95
same,"Pre-emerge Herbicidal Activity SORHA (phytotoxicity rating, scale 0-100)",[6]; 63 g ai/ha,50
same,"Pre-emerge Herbicidal Activity SORHA (phytotoxicity rating, scale 0-100)",[6]; 250 g ai/ha,90
same,"Pre-emerge Herbicidal Activity CHEAL (phytotoxicity rating, scale 0-100)",[7]; 63 g ai/ha,100
same,"Pre-emerge Herbicidal Activity CHEAL (phytotoxicity rating, scale 0-100)",[7]; 250 g ai/ha,100
same,"Pre-emerge Herbicidal Activity DIGSA (phytotoxicity rating, scale 0-100)",[8]; 63 g ai/ha,40
same,"Pre-emerge Herbicidal Activity DIGSA (phytotoxicity rating, scale 0-100)",[8]; 250 g ai/ha,90
same,"Pre-emerge Herbicidal Activity CASOB (phytotoxicity rating, scale 0-100)",[9]; 63 g ai/ha,0
same,"Pre-emerge Herbicidal Activity CASOB (phytotoxicity rating, scale 0-100)",[9]; 250 g ai/ha,50
same,"Pre-emerge Herbicidal Activity ABUTH (phytotoxicity rating, scale 0-100)",[10]; 63 g ai/ha,100
same,"Pre-emerge Herbicidal Activity ABUTH (phytotoxicity rating, scale 0-100)",[10]; 250 g ai/ha,100
same,"Pre-emerge crop damage CORN (phytotoxicity rating, scale 0-100)",[11]; 63 g ai/ha,95
same,"Pre-emerge crop damage CORN (phytotoxicity rating, scale 0-100)",[11]; 250 g ai/ha,100
same,"Pre-emerge crop damage RICE (phytotoxicity rating, scale 0-100)",[12]; 63 g ai/ha,50
same,"Pre-emerge crop damage RICE (phytotoxicity rating, scale 0-100)",[12]; 250 g ai/ha,90
same,Post-emerge Herbicidal Activity ECHCG,[13]; 63 g ai/ha,0
same,Post-emerge Herbicidal Activity ECHCG,[13]; 250 g ai/ha,50
same,Post-emerge Herbicidal Activity SETVI,[14]; 63 g ai/ha,0
same,Post-emerge Herbicidal Activity SETVI,[14]; 250 g ai/ha,80
same,Post-emerge Herbicidal Activity IPOHE,[15]; 63 g ai/ha,95
same,Post-emerge Herbicidal Activity IPOHE,[15]; 250 g ai/ha,100
same,Post-emerge Herbicidal Activity SORHA,[16]; 63 g ai/ha,0
same,Post-emerge Herbicidal Activity SORHA,[16]; 250 g ai/ha,40
same,Post-emerge Herbicidal Activity CHEAL,[17]; 63 g ai/ha,50
same,Post-emerge Herbicidal Activity CHEAL,[17]; 250 g ai/ha,100
same,Post-emerge Herbicidal Activity DIGSA,[18]; 63 g ai/ha,0
same,Post-emerge Herbicidal Activity DIGSA,[18]; 250 g ai/ha,50
same,Post-emerge Herbicidal Activity AMARE,[19]; 63 g ai/ha,80
same,Post-emerge Herbicidal Activity AMARE,[19]; 250 g ai/ha,100
same,Post-emerge Herbicidal Activity CASOB,[20]; 63 g ai/ha,60
same,Post-emerge Herbicidal Activity CASOB,[20]; 250 g ai/ha,95
same,Post-emerge Herbicidal Activity ABUTH,[21]; 63 g ai/ha,100
same,Post-emerge Herbicidal Activity ABUTH,[21]; 250 g ai/ha,100
same,Post-emerge Herbicidal Activity CORN (crop damage),[22]; 63 g ai/ha,0
same,Post-emerge Herbicidal Activity CORN (crop damage),[22]; 250 g ai/ha,30
same,Post-emerge Herbicidal Activity RICE (crop damage),[23]; 63 g ai/ha,10
same,Post-emerge Herbicidal Activity RICE (crop damage),[23]; 250 g ai/ha,60

# Reference: patent US6355799B1, “Substituted benzene compounds, process for their preparation, and herbicidal and defoliant compositions containing them” (ISK Americas Incorporated, priority 1997, dated 2002)
